# Where a name gives a salt, the structure may show the parent alone.
# Key:
# [1] = target: T1, recombinant human Meningioma Expressed Antigen 5 (MGEA5), also referred to as O-GlcNAcase (OGA) (Homo sapiens, UniProt O60502); assay: OGA biochemical assay (inhibition of FM-GlcNAc hydrolysis, fluorescence); conditions: for Emax: read-out: Enzymatic Emax (%); for IC50: read-out: Enzymatic hOGA, pIC50 (converted)
# T1 construct: Full length OGA enzyme was purchased at OriGene (cat #TP322411); purchased OriGene TP322411
# T1 sequence (O60502 1-916): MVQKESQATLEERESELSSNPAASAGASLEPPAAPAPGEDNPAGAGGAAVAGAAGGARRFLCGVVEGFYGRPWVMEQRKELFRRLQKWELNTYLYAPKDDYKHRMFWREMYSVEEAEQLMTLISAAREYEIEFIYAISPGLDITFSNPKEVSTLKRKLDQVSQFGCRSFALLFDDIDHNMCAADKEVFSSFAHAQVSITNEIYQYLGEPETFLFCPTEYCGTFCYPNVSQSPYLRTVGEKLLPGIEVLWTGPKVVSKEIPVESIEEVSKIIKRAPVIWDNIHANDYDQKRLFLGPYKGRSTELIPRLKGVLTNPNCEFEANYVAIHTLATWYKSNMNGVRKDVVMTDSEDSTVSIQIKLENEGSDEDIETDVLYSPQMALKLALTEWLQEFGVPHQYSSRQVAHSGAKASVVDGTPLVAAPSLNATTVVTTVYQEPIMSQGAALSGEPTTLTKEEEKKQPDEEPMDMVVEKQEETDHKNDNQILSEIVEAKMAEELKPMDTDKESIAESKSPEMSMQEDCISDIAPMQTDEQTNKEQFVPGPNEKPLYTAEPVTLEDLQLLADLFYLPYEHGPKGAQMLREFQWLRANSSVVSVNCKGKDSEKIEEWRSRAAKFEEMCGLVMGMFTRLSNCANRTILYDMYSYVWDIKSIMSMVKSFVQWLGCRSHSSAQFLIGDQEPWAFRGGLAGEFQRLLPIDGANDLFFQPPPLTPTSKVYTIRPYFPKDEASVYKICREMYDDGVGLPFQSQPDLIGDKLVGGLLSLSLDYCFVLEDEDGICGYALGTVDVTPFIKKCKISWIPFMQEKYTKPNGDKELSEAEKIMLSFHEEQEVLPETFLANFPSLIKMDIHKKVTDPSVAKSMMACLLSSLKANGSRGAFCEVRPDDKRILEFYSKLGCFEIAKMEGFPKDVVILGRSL
# Procedure, shortened: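 Full-length OGA at 2 nM was pre-incubated 60 min at room temperature with compound, then FM-GlcNAc at 100 uM final was added in citrate/phosphate buffer pH 7.2 with 0.005% Tween-20. After 6 h at room temperature, carbonate pH 11.0 stopped the reaction. Fluorescence read at 485/538 nm; IC50 and Hill coefficient from curve fit against no-inhibitor and saturating-standard controls.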
# OGA = target: T2, OGA (Homo sapiens, UniProt O60502); assay: OGA cellular assay (ICC detection of O-GlcNAcylated proteins in HEK293 cells inducible for P301L mutant human Tau); assay type: cell-based; conditions: 6 hours incubation; for Emax: HEK293, HEK293 cells inducible for P301L mutant human Tau; for EC50: read-out: Cellular hOGA, pEC50 (converted)
# T2 construct: HEK293 cells inducible for P301L mutant human Tau (isoform 2N4R) were established at Janssen; endogenous in cells; host or cells: HEK293 cells inducible for P301L mutant human Tau (2N4R)
# T2 sequence (O60502 1-916): T1 sequence (O60502 1-916)
# Procedure, shortened: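 HEK293 cells with inducible P301L 2N4R Tau, seeded in low-glucose medium, were exposed to compounds for 6 hours (0.2% DMSO), then PFA-fixed and stained with CTD110.6. Imaging intensity at 488 nm measured O-GlcNAcylation, with Hoechst nuclei counts for toxicity. IC50s came from non-linear regression, with Thiamet G at 200 uM as maximum inhibition.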
# [2] = HEK293 cells inducible for P301L mutant human Tau
SMILES,melting point,Emax [1],IC50 [1],Emax (OGA; maximum = Thiamet G 200 uM),EC50 (OGA; [2]),Enzymatic Emax (%) [1],"Cellular Emax (%) (OGA; HEK293 cells inducible for P301L mutant human Tau, maximum = Thiamet G 200 uM)"
"Cc1cc(OC2CCN([C@H](C)c3nc4c(cc3F)OCCO4)CC2)cc(C)n1 (single isomer, unassigned) (as salt: HCl) [Compound 148]",255.75 °C,,,,,,
Cc1nc(OC2CCN(C(C)c3nc4c(cc3F)OCCO4)CC2)ccc1C#N (stereo not drawn) [Compound 112],153.41 °C,96%,10 nM,87%,158 nM,,
CNC(=O)c1ccc(OC2CCN(C(C)c3ccc4c(n3)OCCO4)CC2)cn1 (stereo not drawn) [Compound 122],94.5 °C,100%,79.4 nM,48%,794 nM,,
Cc1cncc(OC2CCN(C(C)c3ccc4c(n3)OCCO4)CC2)n1 (stereo not drawn) [Compound 76],91.71 °C,99%,79.4 nM,36%,> 1000 nM,,
Cc1cc(CC2CCN(C(C)c3ccc4c(n3)OCCO4)CC2)cc(C)n1 (stereo not drawn) [Compound 140],144.6 °C,98%,398 nM,64%,251 nM,,
Cc1ncc(OC2CCN(C(C)c3ccc4c(n3)OCCO4)CC2)cn1.Cl (stereo not drawn) [Compound 90],72.8 °C,100%,100 nM,48%,> 1000 nM,,
Cc1cc(OC2CCN(C(C)c3ccc4c(n3)OCCO4)CC2)cc(C2CC2)n1 (stereo not drawn) (as salt: HCl) [Compound 125],171.4 °C,,,,,,
Cc1ncc(COC2CCN(C(C)c3nc4c(cc3F)OCCO4)CC2)cn1 (stereo not drawn) [Compound 135],132.9 °C,97%,31.6 nM,97%,79.4 nM,,
Cc1cc(NC2CCN(C(C)c3nc4c(cc3F)OCCO4)CC2)cc(C)n1 (stereo not drawn) [Compound 133],250 °C,97%,25.1 nM,87%,50.1 nM,,
"Cc1cc(OC2CCN([C@@H](C)c3nc4c(cc3F)CCO4)CC2)cc(C)n1 (single isomer, unassigned) (as salt: HCl) [Compound 145]",103.27 °C,,,,,,
CCc1cc(OC2CCN(C(C)c3ccc4c(n3)OCCO4)CC2)cc(C)n1 (stereo not drawn) (as salt: HCl) [Compound 129],66 °C,,,,,,
CC(c1nc2c(cc1F)OCCO2)N1CCC(Oc2ccc(C(=O)N(C(C)C)C(C)C)nc2)CC1 (stereo not drawn) (as salt: HCl) [Compound 123],139.7 °C,,,,,,
Cc1cc(OC2CCN(C(C)c3ccc4c(n3)OCCO4)CC2)cc(OC(C)C)n1 (stereo not drawn) (as salt: HCl) [Compound 124],196.6 °C,,,,,,
Cc1ccc(OC2CCN(C(C)c3ccc4c(n3)OCCO4)CC2)cn1 (stereo not drawn) (as salt: HCl) [Compound 41],226.7 °C,,,,,,
Cc1cc(OC2CCN(C(C)c3ccc4c(n3)OCCO4)CC2)cc(C(C)C)n1 (stereo not drawn) (as salt: HCl) [Compound 130],186.4 °C,,,,,,
CC(c1nc2c(cc1F)OCCO2)N1CCC(Oc2ccc(C3CC3)nc2)CC1 (stereo not drawn) [Compound 164],,96%,7.94 nM,72%,67.6 nM,,

SMILES,melting point,Emax [1],IC50 [1],Emax (OGA; maximum = Thiamet G 200 uM),EC50 (OGA; [2]),Enzymatic Emax (%) [1],"Cellular Emax (%) (OGA; HEK293 cells inducible for P301L mutant human Tau, maximum = Thiamet G 200 uM)"
Cc1ncccc1OC1CCN(C(C)c2ccc3c(n2)OCCO3)CC1 (stereo not drawn) [Compound 116],,96%,126 nM,42%,> 1000 nM,,
Cc1cc(OC2CCN(C(C)c3ccc4c(n3)OCCO4)CC2)ccn1 (stereo not drawn) [Compound 45],,96%,100 nM,59%,631 nM,,
Cc1cnc(OC2CCN(C(C)c3nc4c(cc3F)OCCO4)CC2)cc1C (stereo not drawn) [Compound 157],,94%,20 nM,80%,158 nM,,
Cc1ccnc(OC2CCN(C(C)c3ccc4c(n3)OCCO4)CC2)c1 (stereo not drawn) [Compound 44],,98%,200 nM,57%,501 nM,,
Cc1cc(OC2CCN(C(C)c3nc4nc(C)sc4cc3F)CC2)nc(C)n1 (stereo not drawn) [Compound 33],,100%,15.8 nM,65%,251 nM,,
"Cc1cc(OC2CCN([C@@H](C)c3ccc4c(n3)OCCO4)CC2)cc(C(F)(F)F)n1 (single isomer, unassigned) [Compound 147]",,96%,25.1 nM,81%,200 nM,,
Cc1cc(OC2(CF)CCN(C(C)c3ccc4c(n3)OCCO4)CC2)cc(C)n1 (stereo not drawn) (as salt: HCl) [Compound 132],189.8 °C,,,,,,
Cc1cc(COC2CCN(C(C)c3nc4c(cc3F)OCCO4)CC2)cc(C(F)(F)F)n1 (stereo not drawn) [Compound 169],,96%,12.6 nM,87%,51.3 nM,,
Cc1cncc(OC2CCN(C(C)c3nc4c(cc3F)OCCO4)CC2)n1 (stereo not drawn) [Compound 109],,99%,12.6 nM,77%,200 nM,,
CC(c1ccc2c(n1)OCCO2)N1CCC(Oc2cnc(Cl)c(F)c2)CC1 (stereo not drawn) [Compound 69],,95%,79.4 nM,68%,501 nM,,
"Cc1cc(OC2CCN([C@@H](C)c3ccc4c(n3)OCC4)CC2)cc(C)n1 (single isomer, unassigned) [Compound 62]",,90%,1000 nM,6%,> 1000 nM,,
COc1cc(COC2CCN(C(C)c3nc4c(cc3F)OCCO4)CC2)cc(C)n1 (stereo not drawn) [Compound 134],,94%,10 nM,81%,63.1 nM,,
"Cc1cc(OC2CCN(C(C)c3ccc4c(n3)OCCO4)CC2)cc(C)n1 (single isomer, unassigned) [Compound 3]",,,50.1 nM,,251 nM,103%,83%
CC(c1ccc2c(n1)OCCO2)N1CCC(Oc2ccc(F)cn2)CC1 (stereo not drawn) [Compound 115],,96%,200 nM,25%,> 1000 nM,,
CC(c1nc2c(cc1F)OCCO2)N1CCC(Oc2ccc(C(=O)N(C(C)C)C(C)C)nc2)CC1 (stereo not drawn) [Compound 123],,93%,12.6 nM,59%,100 nM,,
CC(c1ccc2c(n1)OCCO2)N1CCC(Oc2cncc(F)c2)CC1 (stereo not drawn) [Compound 74],,99%,100 nM,44%,> 1000 nM,,
